Series [1] deals with male erectile dysfunction. To be noted: in vivo; cited from earlier work.
On series [2], the source says:
Suitable pharmaceutical vehicles are well known to those skilled in the art and are described in several manuals, including Remington's Pharmaceutical Sciences, 15th edition. […] Similarly, formulations containing PGE1, papaverine, phentolamine and atropine, should be kept under refrigeration.

The conditions of series [3]: in vivo; cited from earlier work.
Series [4] deals with male erectile dysfunction. Particulars: monotherapy or combination as stated; cited from earlier work.
In series [5] the test system is male erectile dysfunction. To be noted: intranasal; cited from earlier work.

Regarding `CCCCC[C@H](O)/C=C/[C@H]1[C@H](O)CC(=O)[C@@H]1CCCCCCC(=O)O` [PGE1, Prostaglandin E1], in series [1], the “subjects with significant pain” value is given as “up to 40%”. The stability in storage entry in series [2] is “not stable in water at room temperature”. Also, the half life result in series [3] is “short half life compared with papaverine and phentolamine”.

With `Cc1ccc(N(CC2=NCCN2)c2cccc(O)c2)cc1` [Phentolamine, phentolamine], in series [4], the erectile response result is “does not reliably produce an erection sufficient for intercourse”.

Regarding `COc1ccc(Cc2nccc3cc(OC)c(OC)cc23)cc1OC` [papaverine], in series [4], the erectile response result was “unpredictable response”.

On to `CCCc1nn(C)c2c(=O)[nH]c(-c3cc(S(=O)(=O)N4CCN(C)CC4)ccc3OCC)nc12` [sildenafil], for which the “time to response in producing an erection” value in series [5] is “within five minutes”.
